Values after ≈ are worked out from the molar mass of the structure shown. Where two headings read alike, the source gives them in different places.
How the values were obtained:
Assay in all cases: MIC, broth micro dilution assay (NCCLS)
Type in all cases: cell-based
[1] = system: Streptococcus pneumoniae A28272
[2] = system: Staphylococcus aureus A15090
[3] = system: Enterococcus faecalis A20688
[4] = 50% Mueller-Hinton medium and 50% Todd Hewitt medium, 35° C., 18 hours
[5] = Mueller-Hinton medium, 35° C., 18 hours

| Compound | MIC (μg/mL) against Streptococcus pneumoniae A28272 [1, 4] [µg/mL] | MIC (μg/mL) against Staphylococcus aureus A15090 [2, 5] [µg/mL] | MIC (μg/mL) against Enterococcus faecalis A20688 [3, 5] [µg/mL] | MIC (μg/mL) against Streptococcus pneumoniae A28272 [1] [µg/mL] | MIC (μg/mL) against Staphylococcus aureus A15090 [2] [µg/mL] | MIC (μg/mL) against Enterococcus faecalis A20688 [3] [µg/mL] |
| --- | --- | --- | --- | --- | --- | --- |
| CO/C(C)=C1/NC(=O)C(C(C)O)NC(=O)c2csc(n2)-c2cc(O)c(-c3nc(C(=O)NC(CN(C)CC(O)C(O)C(O)C(O)CO)C(N)=O)cs3)nc2-c2csc(n2)C2COC(=O)c3c4c5c(cccc5n3O)COC(=O)C(O[C@H]3C[C@](C)(O)[C@H](N(C)C)[C@H](C)O3)C(OC4)C(NC(=O)c3csc1n3)c1nc(cs1)C(=O)N2 (stereo partly drawn) [Example 31] | 0.125 (≈ 0.0766 µM) | 0.125 (≈ 0.0766 µM) | 1.0 (≈ 0.612 µM) | – | – | – |
| CO/C(C)=C1/NC(=O)C(C(C)O)NC(=O)c2csc(n2)-c2cc(O)c(-c3nc(C(=O)NC(CN4CCN(CCN(C)C)CC4)C(N)=O)cs3)nc2-c2csc(n2)C2COC(=O)c3c4c5c(cccc5n3O)COC(=O)C(O[C@H]3C[C@](C)(O)[C@H](N(C)C)[C@H](C)O3)C(OC4)C(NC(=O)c3csc1n3)c1nc(cs1)C(=O)N2 (stereo partly drawn) [Example 54] | – | – | – | 0.25 (≈ 0.157 µM) | 0.5 (≈ 0.314 µM) | 0.125 (≈ 0.0784 µM) |
| COC(C)=C1NC(=O)C(C(C)O)NC(=O)c2csc(n2)-c2cc(O)c(-c3nc(C(=O)NC(CN4CCN(Cc5cc(OC)c(OC)c(OC)c5)CC4)C(N)=O)cs3)nc2-c2csc(n2)C2COC(=O)c3c4c5c(cccc5n3O)COC(=O)C(OC3CC(C)(O)C(N(C)C)C(C)O3)C(OC4)C(NC(=O)c3csc1n3)c1nc(cs1)C(=O)N2 (stereo not drawn) [Example 71] | – | – | – | 0.5 (≈ 0.293 µM) | 1.0 (≈ 0.587 µM) | 2.0 (≈ 1.17 µM) |
| CO/C(C)=C1/NC(=O)C(C(C)O)NC(=O)c2csc(n2)-c2cc(O)c(-c3nc(C(=O)NC(CN(C)CCc4c[nH]cn4)C(N)=O)cs3)nc2-c2csc(n2)C2COC(=O)c3c4c5c(cccc5n3O)COC(=O)C(O[C@H]3C[C@](C)(O)[C@H](N(C)C)[C@H](C)O3)C(OC4)C(NC(=O)c3csc1n3)c1nc(cs1)C(=O)N2 (stereo partly drawn) [Example 56] | – | – | – | 0.125 (≈ 0.08 µM) | 0.25 (≈ 0.16 µM) | 0.5 (≈ 0.32 µM) |
| COC[C@@H]1CCCN1CC(NC(=O)c1csc(-c2nc3c(cc2O)-c2nc(cs2)C(=O)NC(C(C)O)C(=O)N/C(=C(\C)OC)c2nc(cs2)C(=O)NC2c4nc(cs4)C(=O)NC(COC(=O)c4c5c6c(cccc6n4O)COC(=O)C(O[C@H]4C[C@](C)(O)[C@H](N(C)C)[C@H](C)O4)C2OC5)c2nc-3cs2)n1)C(N)=O (stereo partly drawn) [Example 63] | 0.03 (≈ 0.0193 µM) | 0.125 (≈ 0.0805 µM) | 0.25 (≈ 0.161 µM) | – | – | – |
| CNCCNCC(NC(=O)c1csc(-c2nc3c(cc2O)-c2nc(cs2)C(=O)NC(C(C)O)C(=O)N/C(=C(\C)OC)c2nc(cs2)C(=O)NC2c4nc(cs4)C(=O)NC(COC(=O)c4c5c6c(cccc6n4O)COC(=O)C(O[C@H]4C[C@](C)(O)[C@H](N(C)C)[C@H](C)O4)C2OC5)c2nc-3cs2)n1)C(N)=O (stereo partly drawn) [Example 28] | – | – | – | 0.03 (≈ 0.0198 µM) | 0.25 (≈ 0.165 µM) | 0.5 (≈ 0.331 µM) |
| COC(C)=C1NC(=O)C(C(C)O)NC(=O)c2csc(n2)-c2cc(O)c(-c3nc(C(=O)NC(CN4CC5CC4CN5C)C(N)=O)cs3)nc2-c2csc(n2)C2COC(=O)c3c4c5c(cccc5n3O)COC(=O)C(OC3CC(C)(O)C(N(C)C)C(C)O3)C(OC4)C(NC(=O)c3csc1n3)c1nc(cs1)C(=O)N2 (stereo not drawn) [Example 74] | – | – | – | 0.015 (≈ 0.00968 µM) | 0.5 (≈ 0.323 µM) | 2.0 (≈ 1.29 µM) |
| COCCOCCOCCOCCN1CCN(CC(NC(=O)c2csc(-c3nc4c(cc3O)-c3nc(cs3)C(=O)NC(C(C)O)C(=O)N/C(=C(\C)OC)c3nc(cs3)C(=O)NC3c5nc(cs5)C(=O)NC(COC(=O)c5c6c7c(cccc7n5O)COC(=O)C(O[C@H]5C[C@](C)(O)[C@H](N(C)C)[C@H](C)O5)C3OC6)c3nc-4cs3)n2)C(N)=O)CC1 (stereo partly drawn) [Example 69] | – | – | – | 0.25 (≈ 0.146 µM) | 0.5 (≈ 0.292 µM) | 4.0 (≈ 2.33 µM) |
| CO/C(C)=C1/NC(=O)C(C(C)O)NC(=O)c2csc(n2)-c2cc(O)c(-c3nc(C(=O)NC(CSC(CC(=O)O)C(=O)O)C(N)=O)cs3)nc2-c2csc(n2)C2COC(=O)c3c4c5c(cccc5n3O)COC(=O)C(O[C@H]3C[C@](C)(O)[C@H](N(C)C)[C@H](C)O3)C(OC4)C(NC(=O)c3csc1n3)c1nc(cs1)C(=O)N2 (stereo partly drawn) [Example 42] | 0.25 (≈ 0.157 µM) | 4.0 (≈ 2.52 µM) | 4.0 (≈ 2.52 µM) | – | – | – |
| CCN(CC)CCN(CCN(CC)CC)CC(NC(=O)c1csc(-c2nc3c(cc2O)-c2nc(cs2)C(=O)NC(C(C)O)C(=O)N/C(=C(\C)OC)c2nc(cs2)C(=O)NC2c4nc(cs4)C(=O)NC(COC(=O)c4c5c6c(cccc6n4O)COC(=O)C(O[C@H]4C[C@](C)(O)[C@H](N(C)C)[C@H](C)O4)C2OC5)c2nc-3cs2)n1)C(N)=O (stereo partly drawn) [Example 24] | – | – | – | 0.007 (≈ 0.00423 µM) | 1.0 (≈ 0.605 µM) | 2.0 (≈ 1.21 µM) |
| COC(C)=C1NC(=O)C(C(C)O)NC(=O)c2csc(n2)-c2cc(O)c(-c3nc(C(=O)NC(CN(C)C(=O)CCC(=O)O)C(N)=O)cs3)nc2-c2csc(n2)C2COC(=O)c3c4c5c(cccc5n3O)COC(=O)C(OC3CC(C)(O)C(N(C)C)C(C)O3)C(OC4)C(NC(=O)c3csc1n3)c1nc(cs1)C(=O)N2 (stereo not drawn) [Example 106] | 8.0 (≈ 5.1 µM) | 4.0 (≈ 2.55 µM) | 32 (≈ 20.4 µM) | – | – | – |
| COC(C)=C1NC(=O)C(C(C)O)NC(=O)c2csc(n2)-c2cc(O)c(-c3nc(C(=O)NC(CN4CCC(O)C4)C(N)=O)cs3)nc2-c2csc(n2)C2COC(=O)c3c4c5c(cccc5n3O)COC(=O)C(OC3CC(C)(O)C(N(C)C)C(C)O3)C(OC4)C(NC(=O)c3csc1n3)c1nc(cs1)C(=O)N2 (stereo not drawn) [Example 37] | 0.007 (≈ 0.00459 µM) | 0.06 (≈ 0.0394 µM) | 0.125 (≈ 0.082 µM) | – | – | – |
| CO/C(C)=C1/NC(=O)C(C(C)O)NC(=O)c2csc(n2)-c2cc(O)c(-c3nc(C(=O)NC(CNCc4nn[nH]n4)C(N)=O)cs3)nc2-c2csc(n2)C2COC(=O)c3c4c5c(cccc5n3O)COC(=O)C(O[C@H]3C[C@](C)(O)[C@H](N(C)C)[C@H](C)O3)C(OC4)C(NC(=O)c3csc1n3)c1nc(cs1)C(=O)N2 (stereo partly drawn) [Example 50] | – | – | – | 0.25 (≈ 0.163 µM) | 0.25 (≈ 0.163 µM) | 1.0 (≈ 0.651 µM) |
| COC(C)=C1NC(=O)C(C(C)O)NC(=O)c2csc(n2)-c2cc(O)c(-c3nc(C(=O)NC(CN(C)CCCNc4ccncc4)C(N)=O)cs3)nc2-c2csc(n2)C2COC(=O)c3c4c5c(cccc5n3O)COC(=O)C(OC3CC(C)(O)C(N(C)C)C(C)O3)C(OC4)C(NC(=O)c3csc1n3)c1nc(cs1)C(=O)N2 (stereo not drawn) [Example 83] | 0.25 (≈ 0.156 µM) | 1.0 (≈ 0.624 µM) | 0.5 (≈ 0.312 µM) | – | – | – |
| CO/C(C)=C1/NC(=O)C(C(C)O)NC(=O)c2csc(n2)-c2cc(O)c(-c3nc(C(=O)NC(CN4CCN(CCN5CCOCC5)CC4)C(N)=O)cs3)nc2-c2csc(n2)C2COC(=O)c3c4c5c(cccc5n3O)COC(=O)C(O[C@H]3C[C@](C)(O)[C@H](N(C)C)[C@H](C)O3)C(OC4)C(NC(=O)c3csc1n3)c1nc(cs1)C(=O)N2 (stereo partly drawn) [Example 53] | – | – | – | 0.5 (≈ 0.305 µM) | 0.5 (≈ 0.305 µM) | 1.0 (≈ 0.611 µM) |
| CO/C(C)=C1/NC(=O)C(C(C)O)NC(=O)c2csc(n2)-c2cc(O)c(-c3nc(C(=O)NC(CN4CCN(c5ncccn5)CC4)C(N)=O)cs3)nc2-c2csc(n2)C2COC(=O)c3c4c5c(cccc5n3O)COC(=O)C(O[C@H]3C[C@](C)(O)[C@H](N(C)C)[C@H](C)O3)C(OC4)C(NC(=O)c3csc1n3)c1nc(cs1)C(=O)N2 (stereo partly drawn) [Example 22] | – | – | – | 0.0005 (≈ 0.000312 µM) | 0.5 (≈ 0.312 µM) | 1.0 (≈ 0.624 µM) |
| CO/C(C)=C1/NC(=O)C(C(C)O)NC(=O)c2csc(n2)-c2cc(O)c(-c3nc(C(=O)NC(CNCCOCCOCCOCCN)C(N)=O)cs3)nc2-c2csc(n2)C2COC(=O)c3c4c5c(cccc5n3O)COC(=O)C(O[C@H]3C[C@](C)(O)[C@H](N(C)C)[C@H](C)O3)C(OC4)C(NC(=O)c3csc1n3)c1nc(cs1)C(=O)N2 (stereo partly drawn) [Example 58] | – | – | – | 0.25 (≈ 0.153 µM) | 1.0 (≈ 0.614 µM) | 1.0 (≈ 0.614 µM) |
| COC(C)=C1NC(=O)C(C(C)O)NC(=O)c2csc(n2)-c2cc(O)c(-c3nc(C(=O)NC(CN4CCCC4C(O)C(C)C)C(N)=O)cs3)nc2-c2csc(n2)C2COC(=O)c3c4c5c(cccc5n3O)COC(=O)C(OC3CC(C)(O)C(N(C)C)C(C)O3)C(OC4)C(NC(=O)c3csc1n3)c1nc(cs1)C(=O)N2 (stereo not drawn) [Example 81] | 0.007 (≈ 0.00443 µM) | 0.125 (≈ 0.0791 µM) | 0.125 (≈ 0.0791 µM) | – | – | – |

Source: US20020065219A1, “Water soluble thiazolyl peptide derivatives” (priority 2000, published 2002)
